Here are results for 1 compound from PMC4008261, “Rewiring of regenerated axons by combining treadmill training with semaphorin3A inhibition” (Molecular Brain, 2014).

Format in all cases: cell-based
Assay [1] deals with Mediator release, IFN-gamma. Briefly: Pharmacological profile: mediator release. The source says:
(§1) Table 1 Pharmacological profile of SM-345431 (part 1) | column: IC50 (μm)

In assay [2] the test system is Mediator release, IL-10. Briefly: Pharmacological profile: mediator release.
Description: as §1

Assay [3] deals with Mediator release, IL-1beta. Briefly: Pharmacological profile: mediator release.
Description: as §1

Assay [4] has as its system Mediator release, IL-2. Nature of the assay: Pharmacological profile: mediator release.
Description: as §1

The subject of assay [5] is Mediator release, IL-4. Nature of the assay: Pharmacological profile: mediator release.
Description: as §1

For assay [6], the system named is Mediator release, IL-5. Briefly: Pharmacological profile: mediator release.
Description: as §1

Assay [7] has as its system Mediator release, IL-6. Nature of the assay: Pharmacological profile: mediator release.
Description: as §1

The test system of assay [8] is Mediator release, TNF-alfa, PBML. Nature of the assay: Pharmacological profile: mediator release.
Description: as §1

Assay [9] concerns the target T1, semaphorin3A (Homo sapiens, UniProt Q14563).
T1 sequence (Q14563 21-771): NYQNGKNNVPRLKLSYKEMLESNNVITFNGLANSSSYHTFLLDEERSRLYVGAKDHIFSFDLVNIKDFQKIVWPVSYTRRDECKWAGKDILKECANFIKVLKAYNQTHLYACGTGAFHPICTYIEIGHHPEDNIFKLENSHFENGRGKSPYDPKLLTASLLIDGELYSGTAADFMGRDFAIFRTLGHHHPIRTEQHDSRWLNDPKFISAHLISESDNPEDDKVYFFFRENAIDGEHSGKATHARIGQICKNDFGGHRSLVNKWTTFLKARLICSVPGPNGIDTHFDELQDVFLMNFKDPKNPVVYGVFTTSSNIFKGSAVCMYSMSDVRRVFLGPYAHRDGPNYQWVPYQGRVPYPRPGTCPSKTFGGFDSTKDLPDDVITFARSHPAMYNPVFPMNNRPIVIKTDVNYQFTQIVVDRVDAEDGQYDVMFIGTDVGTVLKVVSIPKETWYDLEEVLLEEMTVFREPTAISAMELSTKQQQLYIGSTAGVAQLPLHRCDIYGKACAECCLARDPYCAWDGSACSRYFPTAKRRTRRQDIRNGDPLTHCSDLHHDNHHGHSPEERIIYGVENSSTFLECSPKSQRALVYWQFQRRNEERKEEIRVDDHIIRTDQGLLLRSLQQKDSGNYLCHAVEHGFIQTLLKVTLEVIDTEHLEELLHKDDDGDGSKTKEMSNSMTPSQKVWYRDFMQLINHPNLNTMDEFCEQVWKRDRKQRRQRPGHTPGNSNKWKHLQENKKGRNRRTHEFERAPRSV
Nature of the assay: Growth cone collapse assay, E14 rat DRG. The conditions noted are these: read-out: semaphorin3A inhibiting activity, IC50. The procedure:
The growth cone collapse assay and collagen co-culture experiments were performed as previously described. To examine the effects of SM-345431-silicone, small pieces (2 × 1 × 0.3 mm; approximately 1 mg containing 1 μg of SM-345431) of the SM-345431-silicone or control-silicone were placed in a collagen gel adjacent to E8 chick DRGs and COS7 cell aggregates, as shown in Figure 1C.

Where only a bound is given, the exact number is not on record here.

What is called IC50 is the concentration that gives 50% inhibition. In the case of `CC(=O)c1cc2c(=O)c3c(C(=O)O)c(O)c(O)cc3oc2c(C(C)=O)c1-c1coc2cc(O)c(O)c(C(=O)O)c2c1=O` [SM-345431, Vinaxanthone], the IC50 in [1], in [2], in assay [3], in assay [4], in assay [5] and in [6] was more than 10 µM in each case. Also, the values for the IC50 in assay [7], in assay [8] and in assay [9] were more than 10 µM, more than 10 µM and 0.1 to 0.2 µM, respectively.
